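Results reflect a 48-hour exposure of cells in 96-well plates to compound at five concentrations. At the GI50, growth is halved. TGI denotes the concentration required for complete inhibition of growth.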
Legend:
Test in all cases: inhibition of tumour cell growth, NCI panel, 48 h
[1] = system: 786-0 renal
[2] = system: A498 renal
[3] = system: A549 NSCLC
[4] = system: ACHN renal
[5] = system: BT-549 breast
[6] = system: CAKI-1 renal
[7] = system: CCRF-CEM leukemia
[8] = system: COLO 205 colon
[9] = system: DU-145 prostate
[10] = system: EKVX NSCLC
[11] = system: HCC-2998 colon
[12] = system: HCT-116 colon
[13] = system: HCT-15 colon
[14] = system: HL-60(TB) leukemia
[15] = system: HOP-62 NSCLC
[16] = system: HOP-92 NSCLC
[17] = system: HS 578T breast
[18] = system: HT29 colon
[19] = system: IGROV1 ovarian
[20] = system: K-562 leukemia
[21] = system: KM12 colon
[22] = system: LOX IMVI melanoma
[23] = system: M14 melanoma
[24] = system: MALME-3M melanoma
[25] = system: MCF7 breast
[26] = system: MDA-MB-231 breast
[27] = system: MDA-MB-435
[28] = system: MDA-MB-468 breast
[29] = system: MOLT-4 leukemia
[30] = system: NCI-H226 lung
[31] = system: NCI-H23 lung
[32] = system: NCI-H460 lung
[33] = system: NCI-H522 lung
[34] = system: NCI/ADR-RES ovarian
[35] = system: OVCAR-3 ovarian
[36] = system: OVCAR-4 ovarian
[37] = system: OVCAR-5 ovarian
[38] = system: OVCAR-8 ovarian
[39] = system: PC-3 prostate
[40] = system: RPMI-8226 leukemia
[41] = system: RXF 393 renal
[42] = system: SF-268 CNS
[43] = system: SF-295 CNS
[44] = system: SF-539 CNS
[45] = system: SK-MEL-2 melanoma
[46] = system: SK-MEL-28 melanoma
[47] = system: SK-MEL-5 melanoma
[48] = system: SK-OV-3 ovarian
[49] = system: SN12C renal
[50] = system: SNB-19 CNS
[51] = system: SNB-75 CNS
[52] = system: SW-620 colon
[53] = system: T-47D breast
[54] = system: TK-10 renal
[55] = system: U251 CNS
[56] = system: UACC-257 melanoma
[57] = system: UACC-62 melanoma
[58] = system: UO-31 renal
[59] = system: SR leukemia

`CN(C)c1nc(NCCNS(=O)(=O)c2ccc(C(=O)/C=C/c3ccc(F)cc3)cc2)nc(Nc2ccc(F)cc2)n1` gave a GI50 [1] of 2560 nM, a TGI [1] of 6.3 µM and a GI50 [2] of 6.21 µM. For the same compound, the TGI [2] was 19.3 µM, the GI50 [3] was 3.41 µM and the TGI [3] was 14.2 µM. For the same compound, the GI50 [4] was 3130 nM, the TGI [4] was 10.9 µM and the GI50 [5] was 4.87 µM. It also gave a TGI [5] of 17.1 µM, a GI50 [6] of 3010 nM and a TGI [6] of 12.7 µM. The GI50 [7] was 3420 nM, the TGI [7] was over 100 µM and the GI50 [8] was 2380 nM. For the same compound, the TGI [8] was 6.56 µM, the GI50 [9] was 3940 nM and the TGI [9] was 14 µM. For the same compound, the GI50 [10] was 2950 nM, the TGI [10] was 10.9 µM and the GI50 [11] was 1800 nM. For the same compound, the TGI [11] was 3.45 µM, the GI50 [12] was 1600 nM and the TGI [12] was 3.01 µM. The GI50 [13] was 1990 nM, the TGI [13] was 4.28 µM and the GI50 [14] was 2040 nM. The TGI [14] was 6.34 µM, the GI50 [15] was 8.39 µM and the TGI [15] was 23.6 µM. For the same compound, the GI50 [16] was 2490 nM, the TGI [16] was 6.51 µM and the GI50 [17] was 6.3 µM. It also gave a TGI [17] of 71.5 µM, a GI50 [18] of 1900 nM and a TGI [18] of 3.65 µM. For the same compound, the GI50 [19] was 4.27 µM, the TGI [19] was 15 µM and the GI50 [20] was 2420 nM. The TGI [20] was 6.8 µM, the GI50 [21] was 2000 nM and the TGI [21] was 4.41 µM. For the same compound, the GI50 [22] was 1660 nM, the TGI [22] was 3.07 µM and the GI50 [23] was 2600 nM. It also gave a TGI [23] of 8.29 µM, a GI50 [24] of 3420 nM and a TGI [24] of 12.4 µM. For the same compound, the GI50 [25] was 1800 nM, the TGI [25] was 3.46 µM and the GI50 [26] was 2640 nM. It also gave a TGI [26] of 8.38 µM, a GI50 [27] of 2320 nM and a TGI [27] of 5.69 µM. It also gave a GI50 [28] of 2550 nM, a TGI [28] of 8.09 µM and a GI50 [29] of 2500 nM. The TGI [29] was 6.5 µM, the GI50 [30] was 3.41 µM and the TGI [30] was 16.4 µM. The GI50 [31] was 4.17 µM, the TGI [31] was 15.6 µM and the GI50 [32] was 2450 nM. The TGI [32] was 6.92 µM, the GI50 [33] was 2810 nM and the TGI [33] was 8.9 µM. It also gave a GI50 [34] of 3.25 µM, a TGI [34] of 11.6 µM and a GI50 [35] of 1740 nM. The TGI [35] was 3.24 µM, the GI50 [36] was 3680 nM and the TGI [36] was 15.6 µM. For the same compound, the GI50 [37] was 3390 nM, the TGI [37] was 15 µM and the GI50 [38] was 3420 nM. It also gave a TGI [38] of 13.9 µM, a GI50 [39] of 2760 nM and a TGI [39] of 10.6 µM. The GI50 [40] was 2420 nM, the TGI [40] was 6.92 µM and the GI50 [41] was 2260 nM. The TGI [41] was 7.51 µM, the GI50 [42] was 3.89 µM and the TGI [42] was 16.4 µM. The GI50 [43] was 3.4 µM, the TGI [43] was 13 µM and the GI50 [44] was 2520 nM. The TGI [44] was 6.78 µM, the GI50 [45] was 2770 nM and the TGI [45] was 8.31 µM. The GI50 [46] was 3600 nM, the TGI [46] was 13.7 µM and the GI50 [47] was 2910 nM. For the same compound, the TGI [47] was 11.1 µM, the GI50 [48] was 8.23 µM and the TGI [48] was 21.6 µM. It also gave a GI50 [49] of 1700 nM, a TGI [49] of 3.36 µM and a GI50 [50] of 4.58 µM. It also gave a TGI [50] of 16.8 µM, a GI50 [51] of 2880 nM and a TGI [51] of 16 µM. For the same compound, the GI50 [52] was 1900 nM, the TGI [52] was 4.02 µM and the GI50 [53] was 3020 nM. For the same compound, the TGI [53] was 11.7 µM, the GI50 [54] was 4.62 µM and the TGI [54] was 16.6 µM. For the same compound, the GI50 [55] was 1990 nM, the TGI [55] was 4.41 µM and the GI50 [56] was 3610 nM. It also gave a TGI [56] of 15.2 µM, a GI50 [57] of 3570 nM and a TGI [57] of 14.6 µM. It also gave a GI50 [58] of 2900 nM and a TGI [58] of 11.9 µM.

Compound `CN(C)CCCNC(=S)Nc1ccc(/C=C/c2ccc(Cl)cc2)cc1` has a GI50 [1] of 1620 nM, a TGI [1] of 3.36 µM and a GI50 [4] of 1780 nM. For the same compound, the TGI [4] was 3.19 µM, the GI50 [5] was 2.89 µM and the TGI [5] was 8.87 µM. For the same compound, the GI50 [6] was 1540 nM, the TGI [6] was 2.96 µM and the GI50 [7] was 1630 nM. For the same compound, the TGI [7] was 3.43 µM, the GI50 [8] was 1880 nM and the TGI [8] was 3.64 µM. The GI50 [9] was 1750 nM, the TGI [9] was 3.33 µM and the GI50 [11] was 1640 nM. The TGI [11] was 3.14 µM, the GI50 [13] was 1530 nM and the TGI [13] was 3.03 µM. It also gave a GI50 [14] of 1670 nM, a TGI [14] of 3.93 µM and a GI50 [16] of 1350 nM. The TGI [16] was 2.99 µM, the GI50 [17] was 1.86 µM and the TGI [17] was 4.52 µM. It also gave a GI50 [18] of 2140 nM, a TGI [18] of 4.72 µM and a GI50 [19] of 1.78 µM. The TGI [19] was 3.31 µM, the GI50 [21] was 1820 nM and the TGI [21] was 3.4 µM. For the same compound, the GI50 [22] was 1640 nM, the TGI [22] was 3.09 µM and the GI50 [23] was 1770 nM. It also gave a TGI [23] of 3.62 µM, a GI50 [24] of 1750 nM and a TGI [24] of 3.14 µM. The GI50 [26] was 1620 nM, the TGI [26] was 3.03 µM and the GI50 [27] was 1580 nM. The TGI [27] was 3.06 µM, the GI50 [28] was 1640 nM and the TGI [28] was 3.07 µM. It also gave a GI50 [30] of 8.41 µM, a TGI [30] of 38.2 µM and a GI50 [31] of 2.02 µM. For the same compound, the TGI [31] was 4.44 µM, the GI50 [32] was 1540 nM and the TGI [32] was 3.01 µM. For the same compound, the GI50 [35] was 1440 nM, the TGI [35] was 3.11 µM and the GI50 [36] was 1920 nM. The TGI [36] was 4.35 µM, the GI50 [37] was 1610 nM and the TGI [37] was 3.09 µM. For the same compound, the GI50 [38] was 1980 nM, the TGI [38] was 4.1 µM and the GI50 [39] was 1640 nM. The TGI [39] was 3.24 µM, the GI50 [40] was 2550 nM and the TGI [40] was 7.33 µM. For the same compound, the GI50 [44] was 1680 nM, the TGI [44] was 3.05 µM and the GI50 [45] was 1870 nM. For the same compound, the TGI [45] was 3.57 µM, the GI50 [46] was 1790 nM and the TGI [46] was 3.2 µM. For the same compound, the GI50 [47] was 1720 nM, the TGI [47] was 3.09 µM and the GI50 [48] was 2.03 µM. It also gave a TGI [48] of 4.16 µM, a GI50 [49] of 1680 nM and a TGI [49] of 3.13 µM. The GI50 [59] was 1940 nM, the TGI [59] was 5.1 µM and the GI50 [52] was 1670 nM. The TGI [52] was 3.14 µM, the GI50 [53] was 1880 nM and the TGI [53] was 4.1 µM. For the same compound, the GI50 [54] was 1.87 µM, the TGI [54] was 3.56 µM and the GI50 [56] was 1640 nM. It also gave a TGI [56] of 3.24 µM, a GI50 [57] of 1750 nM and a TGI [57] of 3.17 µM. The GI50 [58] was 1580 nM and the TGI [58] was 2.94 µM.

Reference: PubChem BioAssay (NCI)
